In patent US8436012B2, “Imidazopyridin-2-one derivatives” (Daiichi Sankyo Company, Limited, priority 2008, dated 2013):

Key:
[1] = biological target: T1, human mTOR (Homo sapiens, UniProt P42345); test: mTOR Kinase Activity Inhibition Test; type: biochemical; settings: His-tagged mTOR (1362C), biotinylated peptide substrate, ATP, 3 hours at room temperature, fluorescence resonance energy transfer 665 nm/620 nm; read-out: IC50 value of mTOR enzyme inhibitory activity
T1 construct: the portion corresponding to 1362-2549aa at the C terminus of human mTOR; made in house
Protocol: The kinase activity of mTOR was measured in the presence or absence of a test compound. A substrate peptide is phosphorylated by mTOR kinase activity. A complex of streptavidin-XL665 and anti-phosphorylated S6K (Thr389) antibody/anti-mouse IgG-cryptate binds to this phosphorylated peptide. At this moment, fluorescence resonance energy transfer takes place from antibody/anti-mouse IgG-cryptate exposed to light excitation to XL665, which results in emission of fluorescence at 665 nm. The mTOR kinase activity is detected using this principle.
(1) Sample Preparation and Enzymatic Reaction
An HEK293 cell line that constitutively expresses a His tag fused human mTOR has been established. His tag was introduced into the N terminus of the portion corresponding to 1362-2549aa at the C terminus of human mTOR. Cell lysate was prepared from this HEK293 cell line constitutively expressing His-tagged mTOR (1362C), and His-tagged mTOR (1362C) was purified using the His tag affinity according to a conventional method.
Next, an mTOR enzyme solution was prepared, which contains the aforementioned His-tagged mTOR (1362C) enzyme, 8 μg/mL of biotinylated peptide (Biotin-Ahx-[…]-amide (Sigma)), as well as 50 mM HEPES (pH 7.5), 20 mM MnCl2, 1 mg/ml BSA, an appropriate amount of protease inhibitor cocktail (Complete EDTA free, Roche), 100 ng/ml Calyculin A, 4 μg/ml Cantharidin and 10 mM DTT as other components.
The test compound was dissolved in DMSO, and serial dilutions were prepared with 20 μM ATP solution (50 mM HEPES (pH 7.5), 20 μM ATP) to achieve concentrations necessary for the assay. 5 μL of this compound solution was applied to each well of a 384 well small volume white Greiner plate.
5 μL of mTOR enzyme solution was added to the aforementioned well containing the test compound. After mixing, the mixture was incubated at room temperature for 3 hours to carry out the enzymatic reaction.
The same operation was performed with a solution of DMSO in 20 μM ATP solution as a positive control and with a solution of DMSO in 50 mM HEPES (pH 7.5) as a negative control.
(2) Detection of Enzymatic Reaction
After the enzymatic reaction, 5 μl each of an europium solution (a solution of anti-mouse IgG-cryptate (SCETI Medical Labo K.K.) and anti-phosphorylated S6K (Thr389) antibody (Cell Signaling Technology Inc.) in 50 mM HEPES (pH 7.5), 100 mM EDTA and 1.5 mg/ml BSA) and an XL665 solution (a solution of streptavidin-XL665 (SCETI Medical Labo K.K.) in 50 mM HEPES (pH 7.5), 100 mM EDTA, 0.8 M KF and 1.5 mg/ml BSA) were added in this order and then mixed. The mixture was incubated at 4° C. overnight. On the following day, the mixture was returned to room temperature and irradiated with excitation light at 337 nm. Fluorescence at 620 nm and fluorescence at 665 nm were measured with RUBYstar (BMG).
The mTOR inhibitory activity (%) was calculated using the ratio calculated from the measured values as an index of enzyme activity. Here, the ratio was calculated from the following formula (I). Ratio=10000×665 nm fluorescence value/620 nm fluorescence value (1)
The mTOR enzyme inhibitory activity (%) was calculated from the following formula (2). mTOR enzyme inhibitory activity (%)=100×[(P−S)/(P−N)] (2)
P: Ratio in well of positive control
N: Ratio in well of negative control
S: Ratio in well containing test compound
Further, an optimal curve was calculated based upon each concentration of the test compound prepared in serial dilutions and the mTOR enzyme inhibitory activity (%) at that concentration. The concentration at which 50% inhibition occurred was calculated as the IC50 value of mTOR enzyme inhibitory activity.

[2] = test system: WM-266-4 cells; test: Cell Proliferation Inhibitory Test; type: cell-based; settings: Homo sapiens, 72 h, cultured three days with test compound, MTT, read-out: 50% cell proliferation inhibitory activity (GI50 value)
Protocol: WM-266-4 cells (ATCC, USA) were seeded in a 96-well plate and cultured overnight. Then, serial dilutions of the sample containing the test compound were prepared, added to each well and cultured another three days. Thereafter, the cell amount in each well was measured by MTT (MOSMANN, T., Rapid colorimetric assay for cellular growth and survival: application to proliferation and cytotoxicity assays. J. Immunol. Methods, 65, 55-63 (1983)). The 50% cell proliferation inhibitory activity (GI50 value) was calculated from the following formula (3). 100×[(T−T0)/(C−T0)]=50 (3)
Here, T represents values from the test compound added wells, C represents the value from the well to which the test compound was not added for three days, and To represents an initial measured value at the time of addition of the test compound.

T1 sequence (P42345 1362-2549): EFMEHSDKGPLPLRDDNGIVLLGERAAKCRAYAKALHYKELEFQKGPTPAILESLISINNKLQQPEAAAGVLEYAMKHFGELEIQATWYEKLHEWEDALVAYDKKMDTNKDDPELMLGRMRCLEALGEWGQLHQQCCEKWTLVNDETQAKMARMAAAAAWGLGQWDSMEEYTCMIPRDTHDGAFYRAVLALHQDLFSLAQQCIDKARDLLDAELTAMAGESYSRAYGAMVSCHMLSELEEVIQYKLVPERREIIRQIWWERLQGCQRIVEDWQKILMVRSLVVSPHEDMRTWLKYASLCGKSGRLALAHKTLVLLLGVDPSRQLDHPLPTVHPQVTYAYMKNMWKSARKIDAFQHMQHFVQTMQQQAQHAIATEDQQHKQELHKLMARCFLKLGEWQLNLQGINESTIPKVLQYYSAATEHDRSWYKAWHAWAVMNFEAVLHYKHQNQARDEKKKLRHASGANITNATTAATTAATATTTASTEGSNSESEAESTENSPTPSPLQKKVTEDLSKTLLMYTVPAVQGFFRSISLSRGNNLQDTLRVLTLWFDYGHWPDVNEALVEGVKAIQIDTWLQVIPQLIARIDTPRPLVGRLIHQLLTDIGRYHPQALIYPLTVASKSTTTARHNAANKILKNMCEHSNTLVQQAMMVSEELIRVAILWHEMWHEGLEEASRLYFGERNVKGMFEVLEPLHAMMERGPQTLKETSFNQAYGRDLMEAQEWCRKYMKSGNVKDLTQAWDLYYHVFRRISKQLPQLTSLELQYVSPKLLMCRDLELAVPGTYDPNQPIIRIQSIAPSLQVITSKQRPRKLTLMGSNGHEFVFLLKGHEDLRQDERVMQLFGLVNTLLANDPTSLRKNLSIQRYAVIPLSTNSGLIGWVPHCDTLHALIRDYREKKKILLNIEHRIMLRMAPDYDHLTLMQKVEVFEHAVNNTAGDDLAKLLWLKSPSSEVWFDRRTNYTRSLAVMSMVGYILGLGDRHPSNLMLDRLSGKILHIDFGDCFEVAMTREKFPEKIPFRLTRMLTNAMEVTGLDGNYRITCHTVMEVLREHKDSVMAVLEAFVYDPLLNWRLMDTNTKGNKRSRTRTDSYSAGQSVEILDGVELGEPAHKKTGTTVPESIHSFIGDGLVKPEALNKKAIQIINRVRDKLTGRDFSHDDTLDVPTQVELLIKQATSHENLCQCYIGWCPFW

SMILES | IC50 [1] | GI50 [2]
O=c1[nH]c2ncc(-c3cc(F)c4[nH]ccc4c3)cc2n1CC1CCOCC1 [Example 29, 6-(7-Fluoro-1H-indol-5-yl)-1-(tetrahydro-2H-pyran-4-ylmethyl)-1,3-dihydro-2H-imidazo[4,5-b]pyridin-2-one] | < 50 nM | < 3000 nM
CO[C@@H]1CCO[C@H](Cn2c(=O)[nH]c3ncc(-c4cnc5[nH]ccc5c4)cc32)C1 [Example 138, 2,6-Anhydro-1,3,5-trideoxy-4-O-methyl-1-[2-oxo-6-(1H-pyrrolo[2,3-b]pyridin-5-yl)-2,3-dihydro-1H-imidazo[4,5-b]pyridin-1-yl]-D-threo-hexitol] | < 50 nM | < 3000 nM
Cc1c[nH]c2ncc(-c3cnc4[nH]c(=O)n(C[C@H]5C[C@@H](O)CCO5)c4c3)c(C)c12 [Example 150, 2,6-Anhydro-1,3,5-trideoxy-1-[6-(3,4-dimethyl-1H-pyrrolo[2,3-b]pyridin-5-yl)-2-oxo-2,3-dihydro-1H-imidazo[4,5-b]pyridin-1-yl]-L-threo-hexitol] | < 50 nM | < 3000 nM
COc1c(-c2cnc3[nH]c(=O)n(C[C@H]4COCCO4)c3c2)cnc2[nH]ccc12 [Example 133, 1-[(2S)-1,4-Dioxan-2-ylmethyl]-6-(4-methoxy-1H-pyrrolo[2,3-b]pyridin-5-yl)-1,3-dihydro-2H-imidazo[4,5-b]pyridin-2-one] | < 50 nM | < 3000 nM
CC1(C)CC(Cn2c(=O)[nH]c3ncc(-c4cnc5[nH]ccc5c4)cc32)CCO1 (racemic) [Example 70, 1-[(2,2-Dimethyltetrahydro-2H-pyran-4-yl)methyl]-6-(1H-pyrrolo[2,3-b]pyridin-5-yl)-1,3-dihydro-2H-imidazo[4,5-b]pyridin-2-one] | < 50 nM | < 3000 nM
Cc1c(-c2cnc3[nH]c(=O)n(C[C@H]4CC[C@@H](O)CO4)c3c2)cnc2[nH]cc(Cl)c12 [Example 145, 2,6-Anhydro-1-[6-(3-chloro-4-methyl-1H-pyrrolo[2,3-b]pyridin-5-yl)-2-oxo-2,3-dihydro-1H-imidazo[4,5-b]pyridin-1-yl]-1,3,4-trideoxy-L-threo-hexitol] | < 50 nM | < 3000 nM
O=c1[nH]c2ncc(-c3cnc4[nH]ccc4c3)cc2n1CC1CC1 [Example 21, 1-(Cyclopropylmethyl)-6-(1H-pyrrolo[2,3-b]pyridin-5-yl)-1,3-dihydro-2H-imidazo[4,5-b]pyridin-2-one] | < 50 nM | < 3000 nM
CO[C@@H]1CC[C@H](Cn2c(=O)[nH]c3ncc(-c4cnc5[nH]cc(Cl)c5c4C)cc32)OC1 [Example 148, 2,6-Anhydro-1-[6-(3-chloro-4-methyl-1H-pyrrolo[2,3-b]pyridin-5-yl)-2-oxo-2,3-dihydro-1H-imidazo[4,5-b]pyridin-1-yl]-1,3,4-trideoxy-5-O-methyl-L-threo-hexitol] | < 50 nM | < 3000 nM
O=c1[nH]c2ncc(-c3cnc4[nH]cc(Cl)c4c3)cc2n1CC1CCOCC1 [Example 35, 6-(3-Chloro-1H-pyrrolo[2,3-b]pyridin-5-yl)-1-(tetrahydro-2H-pyran-4-ylmethyl)-1,3-dihydro-2H-imidazo[4,5-b]pyridin-2-one] | < 50 nM | < 3000 nM

Now from value to compound, other results behind:

IC50 [1] | SMILES | GI50 [2]
< 50 nM | N#Cc1c[nH]c2ncc(-c3cnc4[nH]c(=O)n(CC5CCOCC5)c4c3)cc12 [Example 95, 5-[2-Oxo-1-(tetrahydro-2H-pyran-4-ylmethyl)-2,3-dihydro-1H-imidazo[4,5-b]pyridin-6-yl]-1H-pyrrolo[2,3-b]pyridine-3-carbonitrile] | 3000 to 25000 nM
< 50 nM | CO[C@H]1CC[C@@H](Cn2c(=O)[nH]c3ncc(-c4cnc5[nH]cc(Cl)c5c4)cc32)CC1 [Example 115, 6-(3-Chloro-1H-pyrrolo[2,3-b]pyridin-5-yl)-1-[(cis-4-methoxycyclohexyl)methyl]-1,3-dihydro-2H-imidazo[4,5-b]pyridin-2-one] | < 3000 nM
< 50 nM | O=c1[nH]c2ncc(-c3cnc4[nH]ccc4c3)cc2n1CC1CCOCC1 [Example 15, 6-(1H-Pyrrolo[2,3-b]pyridin-5-yl)-1-(tetrahydro-2H-pyran-4-ylmethyl)-1,3-dihydro-2H-imidazo[4,5-b]pyridin-2-one] | < 3000 nM
< 50 nM | O=c1[nH]c2ncc(-c3cnc4[nH]ccc4c3)cc2n1C[C@H]1CC[C@@H](O)CO1 (racemic) [Example 112, 2,6-Anhydro-1,3,4-trideoxy-1-[2-oxo-6-(1H-pyrrolo[2,3-b]pyridin-5-yl)-2,3-dihydro-1H-imidazo[4,5-b]pyridin-1-yl]-DL-threo-hexitol] | < 3000 nM
< 50 nM | CO[C@H]1CC[C@H](Cn2c(=O)[nH]c3ncc(-c4cnc5[nH]ccc5c4)cc32)CC1 [Example 98, 1-[(trans-4-Methoxycyclohexyl)methyl]-6-(1H-pyrrolo[2,3-b]pyridin-5-yl)-1,3-dihydro-2H-imidazo[4,5-b]pyridin-2-one] | < 3000 nM
< 50 nM | O=c1[nH]c2ncc(-c3cnc4ccccc4c3)cc2n1CC1CCOCC1 [Example 5, 6-Quinolin-3-yl-1-(tetrahydro-2H-pyran-4-ylmethyl)-1,3-dihydro-2H-imidazo[4,5-b]pyridin-2-one] | < 3000 nM
< 50 nM | CC(C)c1c[nH]c2ncc(-c3cnc4[nH]c(=O)n(CC5CCOCC5)c4c3)cc12 [Example 90, 6-{3-Isopropyl-1H-pyrrolo[2,3-b]pyridin-5-yl}-1-(tetrahydro-2H-pyran-4-ylmethyl)-1,3-dihydro-2H-imidazo[4,5-b]pyridin-2-one] | < 3000 nM
< 50 nM | Cc1nc2[nH]c(=O)n(C[C@H]3COCCO3)c2cc1-c1cnc2[nH]cc(Cl)c2c1 [Example 46, 6-(3-Chloro-1H-pyrrolo[2,3-b]pyridin-5-yl)-1-[(2S)-1,4-dioxan-2-ylmethyl]-5-methyl-1,3-dihydro-imidazo[4,5-b]pyridin-2-one] | < 3000 nM
< 50 nM | O=c1[nH]c2ncc(-c3cnc4[nH]ccc4c3)cc2n1C[C@H]1CC[C@@H](O)CC1 [Example 102, 1-[(cis-4-Hydroxycyclohexyl)methyl]-6-(1H-pyrrolo[2,3-b]pyridin-5-yl)-1,3-dihydro-2H-imidazo[4,5-b]pyridin-2-one] | < 3000 nM
< 50 nM | Cc1c(-c2cnc3[nH]c(=O)n(C[C@H]4CC[C@@H](O)CO4)c3c2)cnc2[nH]ccc12 (racemic) [Example 141, 2,6-Anhydro-1,3,4-trideoxy-1-[6-(4-methyl-1H-pyrrolo[2,3-b]pyridin-5-yl)-2-oxo-2,3-dihydro-1H-imidazo[4,5-b]pyridin-1-yl]-DL-threo-hexitol] | < 3000 nM
< 50 nM | CO[C@H]1COC[C@H]1Cn1c(=O)[nH]c2ncc(-c3cnc4[nH]ccc4c3)cc21 (racemic) [Example 63] | < 3000 nM
